Experiments:
Abutilon theophrasti = assay: Post-emergence herbicidal activity test (stem and leaf spray, pot culture); assay type: in vivo; settings: 3 weeks after spraying
Method in brief: (§1)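 Seeds soaked 6 h at 25 °C, germinated at 28 °C, sown in loam pots and thinned to 10 plants/pot. At 2–3 leaves, plants received a single spray-tower application of 10, 5 or 2.5 g/mu. Fresh-weight control was graded 0–5 after 3 weeks.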

Amaranthus retroflexus = assay: as above; assay type: in vivo; settings: 3 weeks after spraying
Method in brief: as §1

Echinochloa crusgalli = assay: as above; assay type: in vivo; settings: 3 weeks after spraying
Method in brief: as §1

Portulaca oleracea = assay: as above; assay type: in vivo; settings: 3 weeks after spraying
Method in brief: as §1

Setaria viridis = assay: as above; assay type: in vivo; settings: 3 weeks after spraying
Method in brief: as §1

Trifoliumre pensL. = assay: Post-emergence herbicidal activity test (stem and leaf spray, pot culture); assay type: in vivo; settings: 3 weeks after spraying
Method in brief: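 Rates of 10, 5 and 2.5 g/mu were applied in a single spray-tower treatment to 2–3-leaf plants, thinned to 10 per pot. Formulation: acetone solution, Tween 80, 1.5 L/ha methyl oleate synergist. Weed response assessed after 3 further greenhouse weeks; mean of three experiments.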

| Compound | Post-emergence herbicidal activity, A. theophrasti (grade) (Abutilon theophrasti; dosage 2.5 g/mu) | Post-emergence herbicidal activity, A. theophrasti (grade) (Abutilon theophrasti; dosage 5 g/mu) | Post-emergence herbicidal activity, A. theophrasti (grade) (Abutilon theophrasti; dosage 10 g/mu) | Post-emergence herbicidal activity, A. retroflexus (grade) (Amaranthus retroflexus; dosage 2.5 g/mu) | Post-emergence herbicidal activity, A. retroflexus (grade) (Amaranthus retroflexus; dosage 5 g/mu) | Post-emergence herbicidal activity, A. retroflexus (grade) (Amaranthus retroflexus; dosage 10 g/mu) | Post-emergence herbicidal activity, E. crusgalli (grade) (Echinochloa crusgalli; dosage 2.5 g/mu) | Post-emergence herbicidal activity, E. crusgalli (grade) (Echinochloa crusgalli; dosage 5 g/mu) | Post-emergence herbicidal activity, E. crusgalli (grade) (Echinochloa crusgalli; dosage 10 g/mu) | Post-emergence herbicidal activity, P. oleracea (grade) (Portulaca oleracea; dosage 2.5 g/mu) | Post-emergence herbicidal activity, P. oleracea (grade) (Portulaca oleracea; dosage 5 g/mu) | Post-emergence herbicidal activity, P. oleracea (grade) (Portulaca oleracea; dosage 10 g/mu) | Post-emergence herbicidal activity, S. viridis (grade) (Setaria viridis; dosage 2.5 g/mu) | Post-emergence herbicidal activity, S. viridis (grade) (Setaria viridis; dosage 5 g/mu) | Post-emergence herbicidal activity, S. viridis (grade) (Setaria viridis; dosage 10 g/mu) | melting point [°C] | Post-emergence herbicidal activity, Trifoliumre pensL. (grade) (Trifoliumre pensL.; dosage 2.5 g/mu) | Post-emergence herbicidal activity, Trifoliumre pensL. (grade) (Trifoliumre pensL.; dosage 5 g/mu) | Post-emergence herbicidal activity, Trifoliumre pensL. (grade) (Trifoliumre pensL.; dosage 10 g/mu) |
| --- | --- | --- | --- | --- | --- | --- | --- | --- | --- | --- | --- | --- | --- | --- | --- | --- | --- | --- | --- |
| Cc1ccc(-c2nnc(COc3cc(N4C(=O)C5=C(CCCC5)C4=O)c(F)cc3Cl)o2)cc1 [Compound B13, 2-(4-chloro-2-fluoro-5-((5-(4-tolyl)-1,3,4-oxadiazole-2-yl)methoxy)phenyl)-4,5,6,7-tetrahydro-1H-isoindole-1,3(2H)-dione] | 5 (Grade 5: the growth control rate is greater than or equal to 85%) | 5 (Grade 5: the growth control rate is greater than or equal to 85%) | 5 (Grade 5: the growth control rate is greater than or equal to 85%) | 5 (Grade 5: the growth control rate is greater than or equal to 85%) | 5 (Grade 5: the growth control rate is greater than or equal to 85%) | 5 (Grade 5: the growth control rate is greater than or equal to 85%) | 1 (Grade 1: the growth control rate is greater than or equal to 5% and less than 20%) | 2 (Grade 2: the growth control rate is greater than or equal to 20% and less than 40%) | 3 (Grade 3: the growth control rate is greater than or equal to 40% and less than 60%) | 5 (Grade 5: the growth control rate is greater than or equal to 85%) | 5 (Grade 5: the growth control rate is greater than or equal to 85%) | 5 (Grade 5: the growth control rate is greater than or equal to 85%) | 2 (Grade 2: the growth control rate is greater than or equal to 20% and less than 40%) | 3 (Grade 3: the growth control rate is greater than or equal to 40% and less than 60%) | 4 (Grade 4: the growth control rate is greater than or equal to 60% and less than 85%) | 104 to 106 | 5 (Grade 5: the growth control rate is greater than or equal to 85%) | 5 (Grade 5: the growth control rate is greater than or equal to 85%) | 5 (Grade 5: the growth control rate is greater than or equal to 85%) |
| O=C(COc1cc(N2C(=O)C3=C(CCCC3)C2=O)c(F)cc1Cl)c1ccccc1 [Compound C1, 2-(4-chloro-2-fluoro-5-(2-oxo-2-phenylethoxy)phenyl)-4,5,6,7-tetrahydro-1H-isoindole-1,3(2H)-dione] | 5 (Grade 5: the growth control rate is greater than or equal to 85%) | 5 (Grade 5: the growth control rate is greater than or equal to 85%) | 5 (Grade 5: the growth control rate is greater than or equal to 85%) | 5 (Grade 5: the growth control rate is greater than or equal to 85%) | 5 (Grade 5: the growth control rate is greater than or equal to 85%) | 5 (Grade 5: the growth control rate is greater than or equal to 85%) | 1 (Grade 1: the growth control rate is greater than or equal to 5% and less than 20%) | 2 (Grade 2: the growth control rate is greater than or equal to 20% and less than 40%) | 3 (Grade 3: the growth control rate is greater than or equal to 40% and less than 60%) | 5 (Grade 5: the growth control rate is greater than or equal to 85%) | 5 (Grade 5: the growth control rate is greater than or equal to 85%) | 5 (Grade 5: the growth control rate is greater than or equal to 85%) | 2 (Grade 2: the growth control rate is greater than or equal to 20% and less than 40%) | 3 (Grade 3: the growth control rate is greater than or equal to 40% and less than 60%) | 4 (Grade 4: the growth control rate is greater than or equal to 60% and less than 85%) | 124 to 131 | 5 (Grade 5: the growth control rate is greater than or equal to 85%) | 5 (Grade 5: the growth control rate is greater than or equal to 85%) | 5 (Grade 5: the growth control rate is greater than or equal to 85%) |
| N#Cc1ccc(C(=O)COc2cc(N3C(=O)C4=C(CCCC4)C3=O)c(F)cc2Cl)cc1 [Compound C3, 2-(4-chloro-2-fluoro-5-(2-oxo-2-(4-cyanophenyl)ethoxy)phenyl)-4,5,6,7-tetrahydro-1H-isoindole-1,3(2H)-dione] | 5 (Grade 5: the growth control rate is greater than or equal to 85%) | 5 (Grade 5: the growth control rate is greater than or equal to 85%) | 5 (Grade 5: the growth control rate is greater than or equal to 85%) | 5 (Grade 5: the growth control rate is greater than or equal to 85%) | 5 (Grade 5: the growth control rate is greater than or equal to 85%) | 5 (Grade 5: the growth control rate is greater than or equal to 85%) | 1 (Grade 1: the growth control rate is greater than or equal to 5% and less than 20%) | 2 (Grade 2: the growth control rate is greater than or equal to 20% and less than 40%) | 3 (Grade 3: the growth control rate is greater than or equal to 40% and less than 60%) | 5 (Grade 5: the growth control rate is greater than or equal to 85%) | 5 (Grade 5: the growth control rate is greater than or equal to 85%) | 5 (Grade 5: the growth control rate is greater than or equal to 85%) | 2 (Grade 2: the growth control rate is greater than or equal to 20% and less than 40%) | 3 (Grade 3: the growth control rate is greater than or equal to 40% and less than 60%) | 4 (Grade 4: the growth control rate is greater than or equal to 60% and less than 85%) | 171 to 178 | 5 (Grade 5: the growth control rate is greater than or equal to 85%) | 5 (Grade 5: the growth control rate is greater than or equal to 85%) | 5 (Grade 5: the growth control rate is greater than or equal to 85%) |
| O=C(COc1cc(N2C(=O)C3=C(CCCC3)C2=O)c(F)cc1Cl)c1ccccc1F [Compound C4, 2-(4-chloro-2-fluoro-5-(2-oxo-2-(2-fluorophenyl)ethoxy)phenyl)-4,5,6,7-tetrahydro-1H-isoindole-1,3(2H)-dione] | 5 (Grade 5: the growth control rate is greater than or equal to 85%) | 5 (Grade 5: the growth control rate is greater than or equal to 85%) | 5 (Grade 5: the growth control rate is greater than or equal to 85%) | 5 (Grade 5: the growth control rate is greater than or equal to 85%) | 5 (Grade 5: the growth control rate is greater than or equal to 85%) | 5 (Grade 5: the growth control rate is greater than or equal to 85%) | 1 (Grade 1: the growth control rate is greater than or equal to 5% and less than 20%) | 2 (Grade 2: the growth control rate is greater than or equal to 20% and less than 40%) | 3 (Grade 3: the growth control rate is greater than or equal to 40% and less than 60%) | 5 (Grade 5: the growth control rate is greater than or equal to 85%) | 5 (Grade 5: the growth control rate is greater than or equal to 85%) | 5 (Grade 5: the growth control rate is greater than or equal to 85%) | 2 (Grade 2: the growth control rate is greater than or equal to 20% and less than 40%) | 3 (Grade 3: the growth control rate is greater than or equal to 40% and less than 60%) | 4 (Grade 4: the growth control rate is greater than or equal to 60% and less than 85%) | 141 to 143 | 5 (Grade 5: the growth control rate is greater than or equal to 85%) | 5 (Grade 5: the growth control rate is greater than or equal to 85%) | 5 (Grade 5: the growth control rate is greater than or equal to 85%) |

Source: patent US20240300932A1, “N-PHENYLIMINE DERIVATIVE AND PREPARATION METHOD AND USE THEREOF” (Guizhou University, priority 2023, published 2024)
